Source: patent publication US6437093B1, “Methods of treatment comprising administration of Substance P” (Milkhaus Laboratory, Inc., priority 2000, dated 2002)
Ends that are not written are not given here.

Legend:
Assay type in all cases: in vivo, human
[1] = tested on: chronic sciatic pain; experiment: Case report: chronic disabling sciatic pain, sublingual Substance P; conditions: person
Procedure: Their disease appeared to be initiated by chronic exposure to floor stripper which caused RUDS (Reactive Upper Airway Dysfunction). […] Each drop contained 8×10−^5 mg synthetic Substance P (Sigma) in phosphate buffered saline. According to this example, a person presented with a diagnosis of chronic sciatic pain that was disabling and of several years duration. Analgesics helped reduce the pain. The subject was treated by sublingual administration of Substance P according to the method of Example 1.

[2] = tested on: severe sciatic-like pain of the hip; experiment: Case report: severe sciatic-like hip pain in a diabetic subject, sublingual Substance P; conditions: person with diabetes; sublingual administration as in Example 1
Procedure: Their disease appeared to be initiated by chronic exposure to floor stripper which caused RUDS (Reactive Upper Airway Dysfunction). […] Each drop contained 8×10−^5 mg synthetic Substance P (Sigma) in phosphate buffered saline. According to this example, a person presented with severe sciatic-like pain of the hip of long duration. The subject also presented with a diagnosis of diabetes. […] They continue well for over two years.

[3] = tested on: arthritis-like pain and inflammation of the knuckles; experiment: Case report: arthritis-like pain and inflammation of the knuckles, sublingual Substance P; conditions: person; after three days of sublingual drop therapy, continued after two months
Procedure: Their disease appeared to be initiated by chronic exposure to floor stripper which caused RUDS (Reactive Upper Airway Dysfunction). […] Each drop contained 8×10−^5 mg synthetic Substance P (Sigma) in phosphate buffered saline. According to this example, a person with arthritis-like pain and inflammation of the knuckles but who tested negative for rheumatoid factor. […] The subject was treated by sublingual administration of Substance P according to the method. of Example 1.

[4] = tested on: upper airway distress, persistent cough, RUDS (Reactive Upper Airway Dysfunction); experiment: Case report: persistent cough from RUDS triggered by volatile chemicals, sublingual Substance P; conditions: person with RUDS; sublingual drop 8×10−^5 mg, one drop per hour for three hours then four times daily
Procedure: His disease appeared to be initiated by chronic exposure to floor stripper which caused RUDS (Reactive Upper Airway Dysfunction). […] Each drop contained 8×10−^5 mg synthetic Substance P (Sigma) in phosphate buffered saline.

[5] = tested on: numbness, tingling and severe pain in feet and legs; experiment: Case report: numbness, tingling and severe pain in feet, legs and hands, sublingual Substance P; conditions: person; sublingual administration as in Example 1
Procedure: Their disease appeared to be initiated by chronic exposure to floor stripper which caused RUDS (Reactive Upper Airway Dysfunction). […] Each drop contained 8×10−^5 mg synthetic Substance P (Sigma) in phosphate buffered saline. According to this example, a person presented with a history of numbness, tingling and severe pain in feet and legs eight years earlier. During the year immediately preceding their first office visit, the discomfort had spread to their hands. […] No cause of their discomfort could be determined, and the only relief they obtained was from narcotic analgesics.

[6] = tested on: repetitive, almost tic-like, exaggerated cough; experiment: Case report: repetitive tic-like exaggerated cough, sublingual Substance P; conditions: child
Procedure: Their disease appeared to be initiated by chronic exposure to floor stripper which caused RUDS (Reactive Upper Airway Dysfunction). […] Each drop contained 8×10−^5 mg synthetic Substance P (Sigma) in phosphate buffered saline. According to this example, a child presented with a repetitive, almost tic-like, exaggerated cough that was disruptive to their classmates and teacher. Several physicians were consulted without success and with no apparent cause found for the cough.

[7] = tested on: RUDS manifested as severe hoarseness or aphonia; experiment: Case report: RUDS with severe hoarseness or aphonia, sublingual Substance P; conditions: person, one drop four times daily or more if needed
Procedure: Their disease appeared to be initiated by chronic exposure to floor stripper which caused RUDS (Reactive Upper Airway Dysfunction). […] Each drop contained 8×10−^5 mg synthetic Substance P (Sigma) in phosphate buffered saline. According to this example, a person presented RUDS that manifested as severe hoarseness or even aphonia if exposed to volatile chemicals, and especially to fragrances. They had suffered for several years after being exposed to fragrances from several co-workers using multiple perfumes. Their airway problem was reduced only by complete avoidance of any exposure to volatile chemicals which dramatically changing their lifestyle. […] Their RUDS continues to be controlled by taking one drop of Substance P four times daily, or more frequently if needed.

## Substance P (RPKPQQFFGLM; not fully specified (C-terminus); UniProt P20366 58-68, looked up) [synthetic Substance P (Sigma) in phosphate buffered saline; a tachykinin naturally occurring in the body]
[1]; daily doses over several months
  long-term control of sciatic pain: continued control of pain
[1]; first sublingual drop
  effect on chronic sciatic pain after first drop: instantly and dramatically “turned off” the pain
[2]
  effect on sciatic-like hip pain: reduced the pain dramatically
[3]
  effect on arthritis-like pain and inflammation: “remarkable” improvement
[4]
  effect on persistent cough: stopped almost immediately
[5]
  need for narcotic analgesics: able to discontinue narcotics
  pain relief: almost immediate pain relief
[6]; continued sublingual treatment
  long-term control of cough disorder: continued to control this disorder after more than a year
[6]; sublingual administration as in Example 1
  effect on cough: stopped the cough within minutes
[7]
  effect on RUDS (hoarseness/aphonia): significant improvement
